Reference: US10894784B2, “Heteroarylbenzimidazole compounds” (BAYER PHARMA AKTIENGESELLSCHAFT, priority 2015, dated 2021)
pIC50: −log10 of the molar value.

Target: TBK1 (Homo sapiens (Human), UniProt Q9UHD2)
Experiment: TBK1 low ATP kinase assay (in vitro assay 1)
Assay type: biochemical
Conditions: in vitro assay 1, read-out: TBK1 low ATP kinase assay IC50

TBK1, sequence (Q9UHD2 whole entry): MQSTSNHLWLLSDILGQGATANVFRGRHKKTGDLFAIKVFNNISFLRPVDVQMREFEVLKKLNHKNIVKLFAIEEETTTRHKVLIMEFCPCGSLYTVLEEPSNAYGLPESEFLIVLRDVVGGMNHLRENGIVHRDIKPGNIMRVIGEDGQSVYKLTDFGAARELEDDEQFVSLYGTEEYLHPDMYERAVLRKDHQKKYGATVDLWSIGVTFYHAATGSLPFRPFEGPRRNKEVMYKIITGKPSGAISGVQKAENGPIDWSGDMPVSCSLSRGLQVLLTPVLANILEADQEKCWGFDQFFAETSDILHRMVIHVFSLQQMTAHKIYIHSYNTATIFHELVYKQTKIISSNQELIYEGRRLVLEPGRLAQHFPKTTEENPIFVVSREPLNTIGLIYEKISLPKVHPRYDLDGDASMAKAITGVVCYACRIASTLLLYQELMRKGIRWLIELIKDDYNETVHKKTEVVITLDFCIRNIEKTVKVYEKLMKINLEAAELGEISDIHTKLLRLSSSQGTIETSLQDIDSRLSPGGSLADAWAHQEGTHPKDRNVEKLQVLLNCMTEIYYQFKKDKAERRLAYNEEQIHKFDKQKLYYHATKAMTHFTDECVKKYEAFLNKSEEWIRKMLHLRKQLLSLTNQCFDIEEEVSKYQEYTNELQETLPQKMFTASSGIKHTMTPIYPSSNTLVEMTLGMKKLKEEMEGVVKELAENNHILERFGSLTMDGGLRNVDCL

With `COc1cnccc1-c1ccc2nc(Nc3cc(CN4CCN(C(=O)C5CC5)CC4)ccn3)[nH]c2c1OCC(C)C` [Example 50.02, cyclopropyl{4-[(2-{[6-(3-methoxypyridin-4-yl)-7-(2-methylpropoxy)-1H-benzimidazol-2-yl]amino}pyridin-4-yl)methyl]piperazin-1-yl}methanone] the pIC50 was 6.48.
In the case of `Cc1nccc(-c2ccc3nc(Nc4cc(C(C)N5CCN(C(=O)CC(F)(F)F)CC5)ccn4)[nH]c3c2)n1` (racemic) [Example 24.04.03, (rac)-3,3,3-trifluoro-1-{4-[1-(2-{[6-(2-methylpyrimidin-4-yl)-1H-benzimidazol-2-yl]amino}pyridin-4-yl)ethyl]piperazin-1-yl}propan-1-one], the pIC50 was 7.91.
`Cc1noc(-c2ccc3nc(Nc4cc(CN5CCN(c6ccccn6)CC5)ccn4)[nH]c3c2)n1` [Example 101.15, 6-(3-methyl-1,2,4-oxadiazol-5-yl)-N-(4-{[4-(pyridin-2-yl)piperazin-1-yl]methyl}pyridin-2-yl)-1H-benzimidazol-2-amine] showed a pIC50 of 6.68.
`CN(C)c1ccnc(-c2ccc3nc(Nc4cc(CN5CCN(C(=O)CC(F)(F)F)CC5)ccn4)[nH]c3c2)n1` [Example 181.02, 1-(4-{[2-({6-[4-(dimethylamino)pyrimidin-2-yl]-1H-benzimidazol-2-yl}amino)pyridin-4-yl]methyl}piperazin-1-yl)-3,3,3-trifluoropropan-1-one] was tested, and the pIC50 was 6.82.
In the case of `COc1cc(-c2ccc3nc(Nc4cc(CN5CCN(C(=O)OC(C)(C)C)CC5)ccn4)[nH]c3c2)ccn1` [Example 02.01, tert-butyl 4-[(2-{[6-(2-methoxypyridin-4-yl)-1H-benzimidazol-2-yl]amino}pyridin-4-yl)methyl]piperazine-1-carboxylate], the pIC50 was 6.88.
`O=C(C1CC1)N1CCN(Cc2ccnc(Nc3nc4ccc(-c5cc(NC6CC6)ncn5)cc4[nH]3)c2)CC1` [Example 151.03, cyclopropyl(4-{[2-({6-[6-(cyclopropylamino)pyrimidin-4-yl]-1H-benzimidazol-2-yl}amino)pyridin-4-yl]methyl}piperazin-1-yl)methanone] gave a pIC50 of 9.00.
`O=C(CC(F)(F)F)N1CCN(Cc2ccnc(Nc3nc4ccc(-c5cnn(CC6CC6)c5)cc4[nH]3)c2)CC1` [Example 39.01.02, 1-(4-{[2-({6-[1-(cyclopropylmethyl)-1H-pyrazol-4-yl]-1H-benzimidazol-2-yl}amino)pyridin-4-yl]methyl}piperazin-1-yl)-3,3,3-trifluoropropan-1-one] showed a pIC50 of 8.23.
For `CC(c1ccnc(Nc2nc3ccc(-c4cc(C(F)(F)F)ncn4)c(F)c3[nH]2)c1)N1CCN(C(=O)OC(C)(C)C)CC1` (single isomer, unassigned) [Example 173.01, tert-butyl 4-{(1R or 1S)-1-[2-({7-fluoro-6-[6-(trifluoromethyl)pyrimidin-4-yl]-1H-benzimidazol-2-yl}amino)pyridin-4-yl]ethyl}piperazine-1-carboxylate], the pIC50 was 6.40.
Molecule `CC(C)(C)OC(=O)N1CCN(Cc2ccnc(Nc3nc4ccc(-c5cc(NC6CC6)ncn5)cc4[nH]3)c2)CC1` [Example 82.01, tert-butyl 4-{[2-({6-[6-(cyclopropylamino)pyrimidin-4-yl]-1H-benzimidazol-2-yl}amino)pyridin-4-yl]methyl}piperazine-1-carboxylate] has a pIC50 of 8.44.
Work on `COc1cncnc1-c1ccc2nc(Nc3cc(C(C)N4CCN(C(=O)C5CC5)CC4)ccn3)[nH]c2c1` (single isomer, unassigned) [Example 35.03.03.B, cyclopropyl{4-[(1S or 1R)-1-(2-{[6-(5-methoxypyrimidin-4-yl)-1H-benzimidazol-2-yl]amino}pyridin-4-yl)ethyl]piperazin-1-yl}methanone] yielded a pIC50 of 7.50.
`COCc1cc(-c2ccc3nc(Nc4cc(C(C)N5CCN(C(=O)CC(F)(F)F)CC5)ccn4)[nH]c3c2Cl)ncn1` (single isomer, unassigned) [Example 99.01, 1-(4-{(1R or 1S)-1-[2-({7-chloro-6-[6-(methoxymethyl)pyrimidin-4-yl]-1H-benzimidazol-2-yl}amino)pyridin-4-yl]ethyl}piperazin-1-yl)-3,3,3-trifluoropropan-1-one] gave a pIC50 of 7.48.
`CCOc1c(-c2ccncc2OC)ccc2nc(Nc3cc(CN4CCN(C(=O)CC5CC5)CC4)ccn3)[nH]c12` [Example 51.02, 2-cyclopropyl-1-{4-[(2-{[7-ethoxy-6-(3-methoxypyridin-4-yl)-1H-benzimidazol-2-yl]amino}pyridin-4-yl)methyl]piperazin-1-yl}ethanone] gave a pIC50 of 6.57.
In the case of `COc1c(-c2ccc3nc(Nc4cc(CN5CCN(C(=O)C6(C(F)(F)F)CC6)CC5)ccn4)[nH]c3c2)ncnc1N(C)CC1CC1` [Example 110.03, [4-({2-[(6-{6-[(cyclopropylmethyl)(methyl)amino]-5-methoxypyrimidin-4-yl}-1H-benzimidazol-2-yl)amino]pyridin-4-yl}methyl)piperazin-1-yl][1-(trifluoromethyl)cyclopropyl]methanone], the pIC50 was 7.28.
Molecule `Cc1nccc(-c2ccc3nc(Nc4cc(C(C)N5CCN(C(=O)C6CC6)CC5)ccn4)[nH]c3c2)n1` (single isomer, unassigned) [Example 24.05.04.B, cyclopropyl{4-[(1S or 1R)-1-(2-{[6-(2-methylpyrimidin-4-yl)-1H-benzimidazol-2-yl]amino}pyridin-4-yl)ethyl]piperazin-1-yl}methanone] has a pIC50 of 7.47.
`CC(c1ccnc(Nc2nc3ccc(-c4cnn(CC5CC5(F)F)c4)cc3[nH]2)c1)N1CCN(C(=O)CC(F)(F)F)CC1` (single isomer, unassigned) [Example 55.02, 1-{4-[(1R or 1S)-1-(2-{[6-(1-{[(1RS)-2,2-difluorocyclopropyl]methyl}-1H-pyrazol-4-yl)-1H-benzimidazol-2-yl]amino}pyridin-4-yl)ethyl]piperazin-1-yl}-3,3,3-trifluoropropan-1-one] was tested, and the pIC50 was 8.97.
In the case of `Cc1noc(-c2ccc3nc(Nc4cc(CN5CCN(c6ccc(F)c(F)c6)CC5)ccn4)[nH]c3c2)n1` [Example 101.21, N-(4-{[4-(3,4-difluorophenyl)piperazin-1-yl]methyl}pyridin-2-yl)-6-(3-methyl-1,2,4-oxadiazol-5-yl)-1H-benzimidazol-2-amine], the pIC50 was < 4.24.
For `O=C(CC(F)(F)F)N1CCN(Cc2ccnc(Nc3nc4ccc(-c5ccn[nH]5)cc4[nH]3)c2)CC1` [Example 124.02, 3,3,3-trifluoro-1-{4-[(2-{[6-(1H-pyrazol-5-yl)-1H-benzimidazol-2-yl]amino}pyridin-4-yl)methyl]piperazin-1-yl}propan-1-one], the pIC50 was 7.00.
In the case of `CCN(C)c1cc(-c2ccc3nc(Nc4cc(CN5CCN(C(=O)CC(F)(F)F)CC5)ccn4)[nH]c3c2)ncn1` [Example 148.02, 1-[4({2-[(6-{6-[ethyl(methyl)amino]pyrimidin-4-yl}-1H-benzimidazol-2-yl)amino]pyridin-4-yl}methyl)piperazin-1-yl]-3,3,3-trifluoropropan-1-one], the pIC50 was 8.19.
`CC(c1ccnc(Nc2nc3ccc(-c4cc(N5CC(F)(F)C5)ncn4)cc3[nH]2)c1)N1CCN(C(=O)CC(F)(F)F)CC1` (single isomer, unassigned) [Example 116.03, 1-(4-{(1R or 1S)-1-[2-({6-[6-(3,3-difluoroazetidin-1-yl)pyrimidin-4-yl]-1H-benzimidazol-2-yl}amino)pyridin-4-yl]ethyl}piperazin-1-yl)-3,3,3-trifluoropropan-1-one] was tested, and the pIC50 was 8.89.
